Test results as given in US9339531B2, “Recognition of CYP2E1 epitopes” (The Johns Hopkins University, priority 2009, dated 2016).
Where two headings read alike, the source gives them in different places. Peptide text beside a SMILES is read from it.

Tested on: splenocytes from TFA-S100 immunized BALB/c mice
Details: for activation of T cells (splenocyte proliferation, 3H thymidine incorporation / proliferation index): 0.1, 0.5 or 1 ug/mL epitope, splenocytes two weeks after TFA-S100 immunization; for recognition by DILI-specific T cells and B cells: summary of mouse splenocyte proliferation and human serum ELISA
Description: FIG. 4. Splenocyte proliferation assays with candidate CYP2E1 epitopes.
As described above, BALB/c mice were immunized with TFA-S100. Splenocytes from BALB/c mice immunized with S100 in CFA plus PT or CFA and PT alone were used as controls. Splenocyte isolation was performed using basic immunological techniques. Briefly, spleens were harvested two weeks after immunization. Spleens were mashed between two frosted glass slides, and tissue debris was removed by filtering the sample through a 70 μm cell strainer. The remaining cells were washed with sterile phosphate buffered saline/2% fetal calf serum (PBS/2% FCS) and centrifuged at 1500 rpm for 10 minutes using a refrigerated desktop centrifuge. Red cells were lysed using ACK lysing buffer. The remaining cells were washed with RPMI-10% HEPES and filtered through a 70 μm cell strainer. The splenocytes were stored in RPMI complete media with 10% FCS (RPMI-10) at a final concentration of 2.5 million cells per 1 mL of media.
For the proliferation assays, 2.5×10^5 splenocytes (100 μl) were added to each well of a 96 well plate with 0.1 μg/mL, 0.5 μg/mL, or 1 μg/mL of a candidate epitope. As controls, media or concanavalin A (Con A) were also tested in the proliferation assays. Plates were incubated for 3 days at 37° C., 5% CO2, 95% air (humidified). Six to 18 hours prior to the 72 hour time point, the splenocytes were pulsed with 1 μCi/well ^3H thymidine (0.25 mCi/0.25 ml stock). Specifically, a 1:10 dilution (0.1 mCi/ml) of the ^3H thymidine stock solution is made by adding 200 μl of ^3H thymidine stock solution to 1800 μl of sterile RPMI. 10 μl (1 μCi) of diluted ^3H thymidine was pipetted into each well. The cells were incubated for […]. After incubation, cells were placed in −20° C. for up to 45 minutes to stop the incorporation of ^3H thymidine into proliferating cells. The splenocytes were analyzed and ^3H incorporation, an indicator of cellular proliferation, was measured.

| SMILES | activation of T cells (splenocyte proliferation, 3H thymidine incorporation / proliferation index) | recognition by DILI-specific T cells and B cells | recognition by DILI-specific T cells and B cells (listed as Gly^113-Leu^133) |
| --- | --- | --- | --- |
| CC(C)C[C@H](NC(=O)[C@H](CC(C)C)NC(=O)[C@H](CC(C)C)NC(=O)[C@H](Cc1ccccc1)NC(=O)[C@H](C)NC(=O)[C@H](C)NC(=O)[C@H](Cc1c[nH]c2ccccc12)NC(=O)[C@@H](NC(=O)[C@H](CC(C)C)NC(=O)[C@H](CC(C)C)NC(=O)[C@H](C)NC(=O)[C@@H](NC(=O)[C@@H](NC(=O)[C@@H](NC(=O)CNC(=O)[C@H](CC(C)C)NC(=O)[C@H](C)NC(=O)[C@@H](N)CO)C(C)C)[C@@H](C)O)C(C)C)C(C)C)C(=O)O [JHDN1] (H-SALGVTVALLVWAAFLLL-OH) | able to activate T cells | – | – |
| CC[C@H](C)[C@H](NC(=O)CN)C(=O)N[C@H](C(=O)N[C@@H](Cc1ccccc1)C(=O)N[C@@H](CC(N)=O)C(=O)N[C@@H](CC(N)=O)C(=O)NCC(=O)N1CCC[C@H]1C(=O)N[C@H](C(=O)N[C@@H](Cc1c[nH]c2ccccc12)C(=O)N[C@@H](CCCCN)C(=O)N[C@@H](CC(=O)O)C(=O)N[C@H](C(=O)N[C@@H](CCCNC(=N)N)C(=O)N[C@@H](CCCNC(=N)N)C(=O)N[C@@H](Cc1ccccc1)C(=O)N[C@@H](CO)C(=O)N[C@@H](CC(C)C)C(=O)N[C@H](C(=O)N[C@H](C(=O)N[C@@H](CC(C)C)C(=O)O)[C@@H](C)O)[C@@H](C)O)[C@@H](C)CC)[C@@H](C)O)[C@@H](C)CC [JHDN5] (H-GIIFNNGPTWKDIRRFSLTTL-OH) | able to activate T cells | only candidate epitope that is recognized by DILI-specific T cells | recognized by DILI-specific T cells and B cells |
